This passage reports inhibition results from patent US8680159B2, “Bradykinin 1 receptor modulating compounds” (Gruenenthal GmbH, priority 2010, dated 2014).

Each structure is given as a SMILES string. Read-outs that look alike come from different tables or passages of the source.

Assay [1] deals with T1, human B1R receptor (CHO K1 cells stably transfected with the human B1R gene) (Homo sapiens, UniProt P46663).
T1 construct: expressed in transfected cells; host or cells: CHO K1 cells (Chinese hamster ovary), stably transfected
T1 sequence (P46663 1-353): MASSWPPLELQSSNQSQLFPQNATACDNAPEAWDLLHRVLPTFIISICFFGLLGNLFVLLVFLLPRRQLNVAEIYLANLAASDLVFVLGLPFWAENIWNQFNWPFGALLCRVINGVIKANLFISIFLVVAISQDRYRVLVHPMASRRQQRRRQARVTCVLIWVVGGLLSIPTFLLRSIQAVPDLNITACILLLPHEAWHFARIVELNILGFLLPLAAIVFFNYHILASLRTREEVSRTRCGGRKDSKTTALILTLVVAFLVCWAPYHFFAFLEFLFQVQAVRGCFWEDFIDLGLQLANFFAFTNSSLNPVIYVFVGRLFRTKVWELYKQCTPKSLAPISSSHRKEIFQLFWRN
Description: Functional study on the bradykinin receptor 1 (B1R), Ca2+ fluorescence (Fluo-4) FLIPR/Novostar assay, hB1R cells. It is filed as cell-based. A digest of the protocol: (§1)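 Test compounds (10 μM) were added first and the Ca2+ rise was scored as % activation against Lys-Des-Arg9-bradykinin (≥50 nM, human) or Des-Arg9-bradykinin (≥1 μM, rat). After 6-20 min, the matching agonist was given at its EC80, and % inhibition relative to maximal achievable inhibition was calculated.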

Assay [2] concerns the target T2, B1R receptor of the rat (CHO K1 cells stably transfected with the B1R gene of the rat) (Rattus norvegicus, UniProt P97583).
T2 construct: expressed in transfected cells; host or cells: CHO K1 cells (Chinese hamster ovary), stably transfected
T2 sequence (P97583 1-337): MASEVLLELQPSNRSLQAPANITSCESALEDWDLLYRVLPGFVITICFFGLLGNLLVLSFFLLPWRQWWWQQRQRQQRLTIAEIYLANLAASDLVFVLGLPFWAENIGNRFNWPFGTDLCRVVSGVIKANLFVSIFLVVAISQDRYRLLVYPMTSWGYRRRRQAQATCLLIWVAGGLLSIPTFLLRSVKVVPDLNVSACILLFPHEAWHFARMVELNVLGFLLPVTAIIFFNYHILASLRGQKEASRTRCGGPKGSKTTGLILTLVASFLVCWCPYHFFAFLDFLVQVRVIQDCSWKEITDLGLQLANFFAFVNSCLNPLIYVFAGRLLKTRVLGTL
Description: Functional study on the bradykinin receptor 1 (B1R), Ca2+ fluorescence (Fluo-4) FLIPR/Novostar assay, rB1R cells. It is filed as cell-based. The conditions noted are these: CHO-K1, 10 μM. A digest of the protocol: as §1

Where [3] appears, read: CHO-K1, read-out: % inhibition (human B1R) at 10 μM.
Setting [4] is: read-out: % inhibition (rat B1R) at 10 μM.
Where [5] appears, read: CHO-K1, read-out: % Inhibition (h-B1R) at 10 μM.
The mark [6] stands for this setting: read-out: % Inhibition (r-B1R) at 10 μM.

For `Cc1cc(N2CCC(N(C)C(=O)c3cc4c(cc3F)[C@H](NC(=O)c3ccccc3Cl)CC4)CC2)nc(C)n1` [Example H-151, (1R)-1-[(2-Chloro-benzoyl)amino]-N-[1-(2,6-dimethyl-pyrimidin-4-yl)-piperidin-4-yl]-6-fluoro-N-methyl-2,3-dihydro-1H-indene-5-carboxylic acid amide], the inhibition at 10 µM came to 100% in assay [1] (setting [3]) and 96% in assay [2] (setting [4]).
As for `CN(C(=O)c1ccc2c(c1)C(NC(=O)CCC1CCCC1)CCC2)C1CCN(c2ccncc2)CC1` (stereo not shown) [CC_H-06, 8-(3-Cyclopentyl-propanoylamino)-N-methyl-N-(1-pyridin-4-yl-piperidin-4-yl)-5,6,7,8-tetrahydro-naphthalene-2-carboxylic acid amide], the inhibition at 10 µM amounted to 100% in assay [1] (setting [5]) and 104% in assay [2] (setting [6]).
As for `CC(C)CC(=O)N(C(C)C)[C@@H]1CCc2ccc(C(=O)N(C)C3CCN(c4ccnc(N(C)C)n4)CC3)cc21` [Example H-120, (3R)-N-[1-(2-Dimethylamino-pyrimidin-4-yl)-pipendin-4-yl]-3-[isopropyl-(3-methyl-butanoyl)-amino]-N-methyl-2,3-dihydro-1H-indene-5-carboxylic acid amide], the inhibition at 10 µM in assay [1] (setting [3]) turned out to be 98%; in assay [2] (setting [4]), 78%.
On the same counts, the results for `CN(C(=O)c1ccc2c(c1)[C@H](NC(=O)c1ccccc1Cl)CC2)C1CCN(c2ccncn2)CC1` [Example H-147, (3R)-3-[(2-Chloro-benzoyl)amino]-N-methyl-N-(1-pyrimidin-4-yl-piperidin-4-yl)-2,3-dihydro-1H-indene-5-carboxylic acid amide] are 99% and 107%.
Turning to `Cc1cc(N2CCC(N(C)C(=O)c3ccc4c(c3)[C@H](NC(=O)c3cccc(C(F)(F)F)c3Cl)CC4)CC2)nc(C)n1` [Example H-135, (3R)-3-[[2-Chloro-3-(trifluoromethyl)-benzoyl]amino]-N-[1-(2,6-dimethyl-pyrimidin-4-yl)-piperidin-4-yl]-N-methyl-2,3-dihydro-1H-indene-5-carboxylic acid amide], the inhibition at 10 µM in assay [1] (setting [3]) turned out to be 99%; in assay [2] (setting [4]), 106%.
On the same counts, the results for `CN(C(=O)c1ccc2c(c1)[C@H](NS(=O)(=O)c1ccc(F)cc1)CC2)C1CCN(c2ccncc2)CC1` [Example H-72, (3R)-3-[[(4-Fluorophenyl)sulfonyl]amino]-N-methyl-N-(1-pyridin-4-yl-piperidin-4-yl)-2,3-dihydro-1H-indene-5-carboxylic acid amide] are 99% and 104%.
For the molecule `CN(C(=O)c1ccc2c(c1)[C@H](N(C)C(=O)c1ccccc1Cl)CC2)C1CCN(c2ccncc2)CC1` [Example H-153, (3R)-3-[(2-Chloro-benzoyl)-methyl-amino]-N-methyl-N-(1-pyridin-4-yl-piperidin-4-yl)-2,3-dihydro-1H-indene-5-carboxylic acid amide], the inhibition at 10 µM in assay [1] (setting [3]) was 100%; in assay [2] (setting [4]) it was 101%.
`CN(C(=O)c1ccc2c(c1)C(NC(=O)CCC1CCCC1)CC2(C)C)C1CCN(c2ccncc2)CC1` (stereo not shown) [CC_H-18, 3-(3-Cyclopentyl-propanoylamino)-N,1,1-trimethyl-N-(1-pyridin-4-yl-piperidin-4-yl)-2,3-dihydro-indene-5-carboxylic acid amide]: the inhibition at 10 µM in assay [1] (setting [5]) was 99%; in assay [2] (setting [6]), 102%.
Take `CN(C(=O)c1ccc2c(c1)[C@H](NC(=O)c1ccccc1Cl)CC2)C1CCCN(c2ccncc2)C1` (stereo partly drawn) [Example H-115, (3R)-3-[(2-Chloro-benzoyl)amino]-N-methyl-N-(1-pyridin-4-yl-piperidin-3-yl)-2,3-dihydro-1H-indene-5-carboxylic acid amide]: the values for the inhibition at 10 µM in assay [1] (setting [3]) and in assay [2] (setting [4]) were 13% and 63%, respectively.
For `Cc1cccc(C)c1C(=O)NC1CCCc2ccc(C(=O)N(C)C3CCN(c4ccncc4)CC3)cc21` (stereo not shown) [CC_H-09, 8-[(2,6-Dimethyl-benzoyl)amino]-N-methyl-N-(1-pyridin-4-yl-piperidin-4-yl)-5,6,7,8-tetrahydro-naphthalene-2-carboxylic acid amide], the inhibition at 10 µM is 99% in assay [1] (setting [5]) and 103% in assay [2] (setting [6]).
In the case of `CN(C(=O)c1ccc2c(c1)C(NC(=O)c1sccc1Cl)CCC2)C1CCN(c2ccncc2)CC1` (stereo not shown) [CC_H-07, 3-Chloro-N-[7-[methyl-(1-pyridin-4-yl-piperidin-4-yl)-carbamoyl]-1,2,3,4-tetrahydro-naphthalen-1-yl]-thiophene-2-carboxylic acid amide], the inhibition at 10 µM in assay [1] (setting [5]) was found to be 99%; in assay [2] (setting [6]), 103%.
`Cc1cc(N2CCC(N(C)C(=O)c3ccc4c(c3)[C@H](NC(=O)c3cccnc3C(F)(F)F)CC4)CC2)nc(C)n1` [Example H-91, N-[(1R)-6-[[1-(2,6-Dimethyl-pyrimidin-4-yl)-piperidin-4-yl]-methyl-carbamoyl]-2,3-dihydro-1H-inden-1-yl]-2-(trifluoromethyl)-pyridine-3-carboxylic acid amide]: the inhibition at 10 µM in assay [1] (setting [3]) is 100%; in assay [2] (setting [4]), 108%.
In the case of `CN(C(=O)c1ccc2c(c1)C(NC(=O)c1ccccc1Cl)CCO2)C1CCN(c2ccncc2)CC1` (stereo not shown) [CC_H-33, 4-[(2-Chloro-benzoyl)amino]-N-methyl-N-(1-pyridin-4-yl-piperidin-4-yl)-3,4-dihydro-2H-chromene-6-carboxylic acid amide], the inhibition at 10 µM was found to be 98% in assay [1] (setting [5]) and 104% in assay [2] (setting [6]).
`Cc1cc(N2CCC(N(C)C(=O)c3ccc4c(c3)[C@H](NC(=O)c3ccccc3Cl)CC4)CC2)ncn1` [Example H-141, (3R)-3-[(2-Chloro-benzoyl)amino]-N-methyl-N-[1-(6-methyl-pyrimidin-4-yl)-piperidin-4-yl]-2,3-dihydro-1H-indene-5-carboxylic acid amide]: the inhibition at 10 µM in assay [1] (setting [3]) came to 99%; in assay [2] (setting [4]), 105%.
In the case of `CN(C(=O)c1ccc2c(c1)CCC2NS(=O)(=O)Cc1ccccc1C(F)(F)F)C1CCN(c2ccncc2)CC1` (stereo not shown) [CC_H-61, N-Methyl-N-(1-pyridin-4-yl-piperidin-4-yl)-1-[[[2-(trifluoromethyl)-phenyl]-methylsulfonyl]amino]-2,3-dihydro-1H-indene-5-carboxylic acid amide], the inhibition at 10 µM in assay [1] (setting [5]) is 100%; in assay [2] (setting [6]) it was 80%.
Turning to `CN(C(=O)c1ccc2c(c1)[C@H](NC(=O)c1ccccc1Cl)CC2)C1CCN(Cc2ccnc(N3CCCC3)c2)CC1` [Example H-48, (3R)-3-[(2-Chloro-benzoyl)amino]-N-methyl-N-[1-[(2-pyrrolidin-1-yl-pyridin-4-yl)-methyl]-piperidin-4-yl]-2,3-dihydro-1H-indene-5-carboxylic acid amide], the values for the inhibition at 10 µM in assay [1] (setting [3]) and in assay [2] (setting [4]) were 11% and 75%, respectively.
As to `CN(C(=O)c1ccc2c(c1)[C@H](NC(=O)c1ccccc1Cl)CC2)C1CCN(c2cc[n+]([O-])cc2)CC1` [Example H-98, (3R)-3-[(2-Chloro-benzoyl)amino]-N-methyl-N-[1-(1-oxido-pyridin-1-ium-4-yl)-piperidin-4-yl]-2,3-dihydro-1H-indene-5-carboxylic acid amide], the inhibition at 10 µM is 100% in assay [1] (setting [3]) and 105% in assay [2] (setting [4]).
On to `CN(C(=O)c1ccc2c(c1)[C@H](NC(=O)Cc1ccccc1Cl)CC2)C1CCN(c2ccncc2)CC1` [Example H-35, (3R)-3-[[2-(2-Chlorophenyl)-acetyl]amino]-N-methyl-N-(1-pyridin-4-yl-piperidin-4-yl)-2,3-dihydro-1H-indene-5-carboxylic acid amide], for which the inhibition at 10 µM in assay [1] (setting [3]) amounted to 100%; in assay [2] (setting [4]), 105%.
Consider `CC(C)CC(=O)N(C)C1CCc2ccc(C(=O)N(C)C3CCN(c4ccncc4)CC3)cc21` (stereo not shown) [CC_H-28, N-Methyl-3-[methyl-(3-methyl-butanoyl)-amino]-N-(1-pyridin-4-yl-piperidin-4-yl)-2,3-dihydro-1H-indene-5-carboxylic acid amide], for which the values for the inhibition at 10 µM in assay [1] (setting [5]) and in assay [2] (setting [6]) were 99% and 103%, respectively.
Take `CN(C(=O)c1ccc2c(c1)C(NS(=O)(=O)c1c(Cl)cccc1C(F)(F)F)CCC2)C1CCN(c2ccncc2)CC1` (stereo not shown) [CC_H-16, 8-[[[2-Chloro-6-(trifluoromethyl)-phenyl]sulfonyl]amino]-N-methyl-N-(1-pyridin-4-yl-piperidin-4-yl)-5,6,7,8-tetrahydro-naphthalene-2-carboxylic acid amide]: the inhibition at 10 µM in assay [1] (setting [5]) was determined as 99%; in assay [2] (setting [6]) it was 104%.

As usually defined, the inhibition is the change of the read-out against control, counted positive when it falls.
